The results in this text go back to ChEMBL document CHEMBL4431305, “Chermesins A-D: Meroterpenoids with a Drimane-Type Spirosesquiterpene Skeleton from the Marine Algal-Derived Endophytic Fungus Penicillium chermesinum EN-480” (J Nat Prod, 2016).

Series [1] deals with Escherichia coli. In words: Antimicrobial activity against Escherichia coli by microplate assay. The class given is functional.
Series [2] has as its system Micrococcus luteus. In words: Antimicrobial activity against Micrococcus luteus by microplate assay. The class given is functional.
Series [3] has as its system Vibrio alginolyticus. In words: Antimicrobial activity against Vibrio alginolyticus by microplate assay. The class given is functional.
In series [4] the test system is Candida albicans. In words: Antimicrobial activity against Candida albicans by microplate assay. The class given is functional.
Series [5] in a line: Toxicity in Artemia salina assessed as lethality at 100 ug/ml measured after 6 to 24 hrs. The class given is organism-based. The note with it: in vivo.

Values after ≈ are worked out from the molar mass of the structure shown. Active and inactive are the calls of the source. No cut-off for these calls is given here.

As for `O=C(N[C@H](CO)[C@H](O)c1ccc([N+](=O)[O-])cc1)C(Cl)Cl` [CHLORAMPHENICOL], the MIC in series [1] was determined as 2 mg/L (≈ 6.19 µM); in series [2], 2 mg/L (≈ 6.19 µM); in series [3] it was 4 mg/L (≈ 12.4 µM).
With `CC1=CC(=O)C(C)=C2O[C@@]3(C[C@]12C)[C@@H](C)CC[C@H]1C(C)(C)C(=O)CC[C@@]13C`, the MIC in series [4] is 64 mg/L (≈ 173 µM); in series [1], 64 mg/L (≈ 173 µM); in series [2], 8 mg/L (≈ 21.6 µM); in series [3], 64 mg/L (≈ 173 µM). In addition, the mortality at 100 ug/ml in series [5] was < 60%.
Turning to `CC1=C2O[C@@]3(C[C@]2(C)C(C)=C(C(=O)O)C1=O)[C@@H](C)CC[C@H]1C(C)(C)C(=O)CC[C@@]13C`, the MIC entry in series [4], in series [2] and in series [3] was “inactive” each time. In series [1], this compound yielded an MIC of 64 mg/L (≈ 154 µM). Moreover, the mortality at 100 ug/ml in series [5] was < 60%.
`COC(=O)[C@@H]1C(=O)C(C)=C2O[C@@]3(C[C@]2(C)[C@H]1C)[C@@H](C)[C@@H](O)C[C@H]1C(C)(C)[C@@H](O)CC[C@@]13C`: the MIC entry in series [4], in series [1], in series [2] and in series [3] was “inactive” throughout. Also, the mortality at 100 ug/ml in series [5] is < 60%.
On to `CC1=CC(=O)C(C)=C2O[C@@]3(C[C@]12C)[C@@H](C)CC[C@H]1C(C)(C)[C@@H](O)CC[C@@]13C`, for which the MIC in series [4] is 32 mg/L (≈ 85.9 µM); in series [1], 32 mg/L (≈ 85.9 µM); in series [2], 8 mg/L (≈ 21.5 µM); in series [3], 32 mg/L (≈ 85.9 µM). Besides, in series [5], the mortality at 100 ug/ml is < 60%.
Take `C[C@@H]1[C@H](O)[C@@H](C)/C=C/C=C/C=C/C=C/C=C/C=C/C=C/[C@H](O[C@@H]2O[C@H](C)[C@@H](O)[C@H](N)[C@@H]2O)C[C@@H]2O[C@](O)(C[C@@H](O)C[C@@H](O)[C@H](O)CC[C@@H](O)C[C@@H](O)CC(=O)O[C@H]1C)C[C@H](O)[C@H]2C(=O)O` [AMPHOTERICIN B]: 2 mg/L (≈ 2.16 µM) was the least that counted as inhibitory in series [4] (MIC).
